Measured values: ChEMBL document CHEMBL5236544, “Furazans in Medicinal Chemistry” (J Med Chem, 2021)
In brackets after ≈: the same amount, converted by molar mass.

How the values were obtained:
in vitro = details: human, liver microsomes, po, 10 mg/kg
Description: Half life in human liver microsomes at 10 mg/kg, po

MCF7 = assay: cells; type: functional, cell-based; details: Homo sapiens, MCF7, 24 h
Description: Antiproliferative activity against human MCF7 assessed as reduction in cell viability incubated for 24 hrs by MTT assay

physchem [1] = details: PBS, pH 7.4
Description: Solubility of the compound in PBS at pH 7.4

physchem [2] = details: octanol/water
Description: Lipophilicity, log P of the compound

[3] = Cmax in mouse at 100 mg/kg, po; type: ADME, organism-based; design: dose 100 mg/kg, route po; details: in vivo
KB = assay: Antitumor activity against human KB cells assessed as reduction in cell viability; type: functional, cell-based
[4] = Half life in mouse at 10 mg/kg, po; type: ADME, organism-based; details: in vivo
[5] = Binding affinity to Plasmodium falciparum LDH assessed as inhibitory constant
[6] = Inhibition of human recombinant LDH
Plasmodium falciparum [7] = assay: Antimalarial activity against Plasmodium falciparum assessed as parasitic reduction at 100 mg/kg relative to control; type: functional; design: scale not given: the % may be the effect or the level left
[8] = Half life in mouse at 10 mg/kg, ip; type: ADME, organism-based; details: in vivo
Plasmodium falciparum [9] = assay: Antimalarial activity against Plasmodium falciparum assessed as parasitic reduction at 10 mg/kg of chloroquine relative to control; type: functional; design: scale not given: the % may be the effect or the level left
Plasmodium falciparum [10] = assay: Antimalarial activity against drug resistant Plasmodium falciparum KI; type: functional, organism-based
Lactate dehydrogenase = Lactate dehydrogenase (Plasmodium falciparum, UniProt Q0PJ46); assay: Inhibition of recombinant Plasmodium falciparum LDH
Chain of Lactate dehydrogenase (Q0PJ46 whole entry): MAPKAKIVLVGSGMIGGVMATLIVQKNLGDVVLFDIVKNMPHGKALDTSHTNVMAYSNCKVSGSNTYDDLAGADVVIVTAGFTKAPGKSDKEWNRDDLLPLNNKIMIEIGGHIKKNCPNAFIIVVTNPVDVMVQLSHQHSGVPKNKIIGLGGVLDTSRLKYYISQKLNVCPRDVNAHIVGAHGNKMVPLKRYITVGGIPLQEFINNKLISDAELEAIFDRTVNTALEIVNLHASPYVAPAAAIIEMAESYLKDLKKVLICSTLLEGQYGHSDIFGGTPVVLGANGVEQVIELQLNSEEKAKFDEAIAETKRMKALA

HeLa [11] = assay: Antitumor activity against human HeLa cells assessed as reduction in cell viability; type: functional, cell-based
[12] = Cmax in mouse at 100 mg/kg, ip; type: ADME, organism-based; design: dose 100 mg/kg, route ip; details: in vivo
Plasmodium falciparum [13] = assay: Antimalarial activity against drug sensitive Plasmodium falciparum 3D7; type: functional, organism-based
[14] = Half life in human liver microsomes; type: ADME
SK-OV-3 [15] = assay: Antitumor activity against human SK-OV-3 cells xenografted in mouse model assessed as reduction in tumor growth at 100 mg/kg bid relative to control; type: functional; design: scale not given: the % may be the effect or the level left
SK-OV-3 [16] = assay: Antiproliferative activity against human SK-OV-3 cells assessed as inhibition of cell proliferation by MTT assay; type: functional, cell-based
A549 = assay: Antiproliferative activity against human A549 cells assessed as inhibition of cell proliferation incubated for 24 hrs by MTT assay; type: functional, cell-based; details: A549, 24 h
HL-60 = assay: Antiproliferative activity against human HL-60 cells assessed as inhibition of cell proliferation incubated for 24 hrs by MTT assay; type: functional, cell-based; details: HL-60, 24 h
HCT-116 = assay: Antiproliferative activity against human HCT-116 cells assessed as inhibition of cell proliferation incubated for 24 hrs by MTT assay; type: functional, cell-based; details: HCT-116, 24 h
HEK-293T [17] = assay: Antiproliferative activity against human HEK293T cells assessed as inhibition of cell proliferation by MTT assay; type: functional, cell-based
HEK-293T [18] = assay: Antitumor activity against human HEK293T cells xenografted in mouse model assessed as reduction in tumor growth at 100 mg/kg bid relative to control; type: functional; design: scale not given: the % may be the effect or the level left
[19] = Half life in mouse; type: ADME, organism-based; details: in vivo
HeLa [20] = assay: Antiproliferative activity against human HeLa cells assessed as cell growth inhibition; type: functional, cell-based
Staphylococcus aureus [21] = assay: Antibiofilm activity against Staphylococcus aureus reduction in biofilm formation at 63 uM relative to control; type: functional; design: scale not given: the % may be the effect or the level left
Staphylococcus aureus [22] = assay: Antibacterial activity against Staphylococcus aureus assessed as reduction in bacterial growth incubated for 1 hrs in presence of azithromycin by colony-counting method; type: functional
Staphylococcus aureus [23] = assay: Antibiofilm activity against Staphylococcus aureus reduction in biofilm formation in the presence of azithromycin at 63 uM relative to control; type: functional; design: scale not given: the % may be the effect or the level left
Streptococcus pneumoniae [24] = assay: Antibiofilm activity against Streptococcus pneumoniae reduction in biofilm formation at 63 uM relative to control; type: functional; design: scale not given: the % may be the effect or the level left
Staphylococcus aureus [25] = assay: Antibacterial activity against Staphylococcus aureus assessed as reduction in bacterial growth by broth microdilution method; type: functional
Streptococcus pneumoniae [26] = assay: Antibiofilm activity against Streptococcus pneumoniae reduction in biofilm formation in the presence of tobramycin at 13 uM relative to control; type: functional; design: scale not given: the % may be the effect or the level left
Streptococcus pneumoniae [27] = assay: Antibacterial activity against Streptococcus pneumoniae assessed as reduction in bacterial growth by broth microdilution method; type: functional
Streptococcus pneumoniae [28] = assay: Antibacterial activity against Streptococcus pneumoniae assessed as reduction in bacterial growth incubated for 1 hrs in presence of tobramycin by colony-counting method; type: functional
HeLa [29] = assay: Antitumor activity against human HeLa cells xenografted in mouse model assessed as reduction in tumor growth at 100 mg/kg bid relative to control; type: functional; design: scale not given: the % may be the effect or the level left
[30] = Half life in rat, iv; type: ADME; details: in vivo
Rattus norvegicus [31] = assay: Antihypertensive activity in spontaneously hypertensive rat model assessed as change in blood pressure at 10 mg/kg, po measured after 10 hrs; type: functional
Rattus norvegicus [32] = assay: Antihypertensive activity in spontaneously hypertensive rat model assessed as change in blood pressure at 10 mg/kg, po measured after 6 hrs; type: functional
Rattus norvegicus [33] = assay: Antihypertensive activity in spontaneously hypertensive rat model assessed as change in heart rate at 1 mmol/Kg, po measured after 3 hrs; type: functional
Rattus norvegicus [34] = assay: Antihypertensive activity in spontaneously hypertensive rat model assessed as change in blood pressure at 10 mg/kg, po measured after 3 hrs; type: functional
Rattus norvegicus [35] = assay: Antihypertensive activity in spontaneously hypertensive rat model assessed as change in heart rate at 1 mmol/Kg, po measured after 10 hrs; type: functional
Rattus norvegicus [36] = species: Rattus norvegicus; assay: Antihypertensive activity in spontaneously hypertensive rat model assessed as reduction in systemic arterial pressure; type: functional
Rattus norvegicus [37] = assay: Antihypertensive activity in spontaneously hypertensive rat model assessed as change in heart rate at 10 mg/Kg, po measured after 6 hrs; type: functional
Rattus norvegicus [38] = species: Rattus norvegicus; assay: Antihypertensive activity in spontaneously hypertensive rat model assessed as reduction in pulmonary arterial pressure; type: functional
[39] = biological target: Ribosomal protein S6 kinase beta-1 (Homo sapiens, UniProt P23443); assay: Inhibition of p70S6 (unknown origin) […]
Chain of Ribosomal protein S6 kinase beta-1 (P23443 whole entry): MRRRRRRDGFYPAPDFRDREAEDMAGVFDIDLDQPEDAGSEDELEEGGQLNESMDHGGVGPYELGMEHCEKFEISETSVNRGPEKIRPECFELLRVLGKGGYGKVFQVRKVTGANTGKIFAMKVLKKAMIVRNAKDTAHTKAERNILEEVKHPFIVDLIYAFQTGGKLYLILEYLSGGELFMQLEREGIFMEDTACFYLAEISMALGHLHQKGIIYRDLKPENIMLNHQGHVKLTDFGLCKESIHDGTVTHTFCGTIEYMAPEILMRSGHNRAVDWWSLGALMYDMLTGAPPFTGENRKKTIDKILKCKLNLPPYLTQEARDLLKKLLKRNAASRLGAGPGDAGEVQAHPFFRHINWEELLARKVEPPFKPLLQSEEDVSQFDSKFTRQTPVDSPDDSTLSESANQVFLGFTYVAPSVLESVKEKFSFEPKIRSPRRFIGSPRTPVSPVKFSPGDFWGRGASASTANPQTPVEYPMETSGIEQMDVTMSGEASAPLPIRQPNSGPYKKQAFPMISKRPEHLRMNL

Oc1nc2nonc2nc1Nc1ccc(OC(F)(F)F)cc1
half-life (in vitro): 5.7 h | EC50 (MCF7): 4.3 µM | solubility (physchem [1]): > 500 µM | logP (physchem [2]): 5.2

O=C(O)c1nonc1O
Cmax [3]: 138 µM | EC50 (KB): 640 µM | half-life [4]: 1.3 h | Ki [5]: 0.21 µM | IC50 [6]: 72.1 µM | Activity (Plasmodium falciparum [7]): 41% | half-life [8]: 1.3 h | Activity (Plasmodium falciparum [9]): 100% | EC50 (Plasmodium falciparum [10]): 18.6 µM | IC50 (Lactate dehydrogenase): 0.65 µM | EC50 (HeLa [11]): 1300 µM | Cmax [12]: 196 µM | EC50 (Plasmodium falciparum [13]): 22.5 µM | EC90 (Plasmodium falciparum [13]): 75.9 µM

NS(=O)(=O)CC(=O)NCCSc1nonc1/C(=N/O)Nc1cccc(Cl)c1
half-life [14]: > 3 h | Activity (SK-OV-3 [15]): 50% | EC50 (SK-OV-3 [16]): 0.01 µM

Nc1nonc1C(=O)N/N=C1\c2ccccc2-c2nc3nonc3nc21
EC50 (A549): 0.8 µM | EC50 (HL-60): 1.2 µM | EC50 (HCT-116): 1.6 µM

NS(=O)(=O)N1CCC[C@@H](CNc2nonc2/C(=N/O)Nc2ccc(F)c(Br)c2)C1
EC50 (HEK-293T [17]): 0.069 µM | Activity (HEK-293T [18]): 25% | half-life [19]: 3.8 h

Cc1ccc(/C=N/NC(=O)c2nnn(-c3nonc3N)c2-c2ccc([N+](=O)[O-])cc2)cc1
EC50 (HeLa [20]): 15.1 µM

N=C(N/C(=N/O)c1nonc1N)c1ccccc1N
Activity (Staphylococcus aureus [21]): 77% | MIC (Staphylococcus aureus [22]): 200 µM | Activity (Staphylococcus aureus [23]): 48% | Activity (Streptococcus pneumoniae [24]): 73% | MIC (Staphylococcus aureus [25]): 250 µM (≈ 65.3 µg/mL) | Activity (Streptococcus pneumoniae [26]): 50% | MIC (Streptococcus pneumoniae [27]): 250 µM (≈ 65.3 µg/mL) | MIC (Streptococcus pneumoniae [28]): 50 µM

O=C(CNc1nonc1/C(=N/O)N[C@H]1Cc2ccc(F)cc21)NCCO
Activity (HeLa [29]): 15% | half-life [30]: 3.7 h

C[C@@H](N)[C@H]1CC[C@H](C(=O)Nc2ccncc2)CC1 [Y-27632]
Activity (Rattus norvegicus [31]): -5 mmHg | Activity (Rattus norvegicus [32]): -10 mmHg | Activity (Rattus norvegicus [33]): 75 bpm | Activity (Rattus norvegicus [34]): -25 mmHg | Activity (Rattus norvegicus [35]): 0 bpm | Activity (Rattus norvegicus [36]): -32 mmHg | Activity (Rattus norvegicus [37]): 10 bpm | Activity (Rattus norvegicus [38]): -10 mmHg

Cc1ccc2c(c1)nc(-c1nonc1N)n2C1CCC1
IC50 [39]: 0.019 µM
